# Measured values from patent US20240124460A1, “METHODS AND COMPOSITIONS FOR TARGETED PROTEIN DEGRADATION” (Ranok Therapeutics (Hangzhou) Co. Ltd., priority 2020, published 2024).
# pEC50, pIC50: −log10 of the molar value. Read-outs that look alike come from different tables or passages of the source.
# Experiments:
# HSP90α protein = molecular target: T1, HSP90α protein (Homo sapiens, UniProt P07900); test: HSP90α-binding FP (BODIPY) assay; conditions: FP competition with BODIPY-labeled RNK04010
# T1 construct: purchased BPS Bioscience #50298
# In short: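 Fluorescence polarization measured competition with N-terminal human HSP90α, using either FITC-geldanamycin or BODIPY-labelled triazolone RNK04010 as tracer (5 nM final each). Compounds were tested in 2.5-fold dilutions from 20 μM to 5.2 nM, with incubation at 25 °C for 120 min (FITC) or 300 min (BODIPY).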
# [1] = system: MV-4-11 human acute myeloid leukemia; test: MV-4-11 CCK-8 proliferation assay; type: cell-based; conditions: MV-4-11 cells, 72 hr
# In short: (§1)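 CCK-8 absorbance read-out, with inhibition expressed against DMSO-treated cells after subtracting a cell-free DMSO medium blank. Compounds tested over a 3-fold dilution series spanning 20 μM to 1.02 nM; lines grown essentially as ATCC recommends.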
# [2] = system: U-87 MG human glioblastoma; test: U87 MG CCK-8 proliferation assay; type: cell-based; conditions: U-87 MG cells, read-out: U87MG CCK-8
# In short: as §1
pIC50 (HSP90α protein),"pEC50 ([1]; Homo sapiens, MV4-11)","pEC50 ([2]; Homo sapiens, U-87 MG, 72 h)",Compound,pEC50 [1],pEC50 ([2]; 72 hr)
6.00 to 7.00,6.00 to 7.00,< 6.00,"CCOc1cc(N2CCC(C(=O)NCc3ccc(-n4c(O)nnc4-c4cc(CC)c(O)cc4O)cc3C(F)(F)F)CC2)ccc1Nc1ncc2c(n1)N(S(C)(=O)=O)c1ccccc1C(=O)N2C [Compound 089, 1-(3-ethoxy-4-((5-methyl-11-(methylsulfonyl)-6-oxo-6,11-dihydro-5H-benzo[e]pyrimido[5,4-b][1,4]diazepin-2-yl)amino)phenyl)-N-(4-(3-(5-ethyl-2,4-dihydroxyphenyl)-5-hydroxy-4H-1,2,4-triazol-4-yl)-2-(trifluoromethyl)benzyl)piperidine-4-carboxamide]",–,–
> 7.00,> 7.00,> 7.00,"CCOc1cc(N2CCC(C(=O)N3CCC(CN4CCN(Cc5ccc(-n6c(O)nnc6-c6cc(CC)c(O)cc6O)cc5F)CC4)CC3)CC2)ccc1Nc1ncc2c(n1)N(S(C)(=O)=O)c1ccccc1C(=O)N2C [Compound 082, 2-((2-ethoxy-4-(4-(4-((4-(4-(3-(5-ethyl-2,4-dihydroxyphenyl)-5-hydroxy-4H-1,2,4-triazol-4-yl)-2-fluorobenzyl)piperazin-1-yl)methyl)piperidine-1-carbonyl)piperidin-1-yl)phenyl)amino)-5-methyl-11-(methylsulfonyl)-5,11-dihydro-6H-benzo[e]pyrimido[5,4-b][1,4]diazepin-6-one]",–,–
> 7.00,> 7.00,> 7.00,"CCNC(=O)c1nnc(-c2cc(CC)c(O)cc2O)n1-c1ccc(CN2CCN(CC3CCN(C(=O)C4CCN(c5ccc(Nc6ncc7c(n6)N(C)c6ccccc6C(=O)N7C)c(OCC)c5)CC4)CC3)CC2)cc1 [Compound 134, 4-(4-((4-((1-(1-(4-((5,11-dimethyl-6-oxo-6,11-dihydro-5H-benzo[e]pyrimido[5,4-b][1,4]diazepin-2-yl)amino)-3-ethoxyphenyl)piperidine-4-carbonyl)piperidin-4-yl)methyl)piperazin-1-yl)methyl)phenyl)-N-ethyl-5-(5-ethyl-2,4-dihydroxyphenyl)-4H-1,2,4-triazole-3-carboxamide]",–,–
6.00 to 7.00,> 7.00,6.00 to 7.00,"CCOc1cc(N2CCC(C(=O)N3CCC(CN4CCN(Cc5ccc(-n6c(C(=O)NC(CC)CC)nnc6-c6cc(CC)c(O)cc6O)cc5)CC4)CC3)CC2)ccc1Nc1ncc2c(n1)N(S(C)(=O)=O)c1ccccc1C(=O)N2C [Compound 084, 4-(4-((4-((1-(1-(3-ethoxy-4-((5-methyl-11-(methylsulfonyl)-6-oxo-6,11-dihydro-5H-benzo[e]pyrimido[5,4-b][1,4]diazepin-2-yl)amino)phenyl)piperidine-4-carbonyl)piperidin-4-yl)methyl)piperazin-1-yl)methyl)phenyl)-5-(5-ethyl-2,4-dihydroxyphenyl)-N-(pentan-3-yl)-4H-1,2,4-triazole-3-carboxamide]",–,–
6.00 to 7.00,> 7.00,< 6.00,"CCOc1cc(N2CCC(C(=O)N3CCC(Cc4ccc(CN(C)Cc5ccc(-n6c(C(=O)NCC(F)(F)F)nnc6-c6cc(CC)c(O)cc6O)cc5)cc4)CC3)CC2)ccc1Nc1ncc2c(n1)N(S(C)(=O)=O)c1ccccc1C(=O)N2C [Compound 097, 4-(4-(((4-((1-(1-(3-ethoxy-4-((5-methyl-11-(methylsulfonyl)-6-oxo-6,11-dihydro-5H-benzo[e]pyrimido[5,4-b][1,4]diazepin-2-yl)amino)phenyl)piperidine-4-carbonyl)piperidin-4-yl)methyl)benzyl)(methyl)amino)methyl)phenyl)-5-(5-ethyl-2,4-dihydroxyphenyl)-N-(2,2,2-trifluoroethyl)-4H-1,2,4-triazole-3-carboxamide]",–,–
6.00 to 7.00,> 7.00,6.00 to 7.00,"CCOc1cc(N2CCC(C(=O)N3CCN(c4ccc(-n5c(O)nnc5-c5cc(C(C)C)c(O)cc5O)cc4)CC3)CC2)ccc1Nc1ncc2c(n1)N(C)c1ccccc1C(=O)N2C [Compound 023, 2-((4-(4-(4-(4-(3-(2,4-dihydroxy-5-isopropylphenyl)-5-hydroxy-4H-1,2,4-triazol-4-yl)phenyl)piperazine-1-carbonyl)piperidin-1-yl)-2-ethoxyphenyl)amino)-5,11-dimethyl-5,11-dihydro-6H-benzo[e]pyrimido[5,4-b][1,4]diazepin-6-one]",–,–
6.00 to 7.00,> 7.00,< 6.00,"CCOc1cc(N2CCC(C(=O)NCc3ccc(-n4c(O)nnc4-c4cc(C(C)C)c(O)cc4O)cc3)CC2)ccc1Nc1ncc2c(n1)N(S(C)(=O)=O)c1ccccc1C(=O)N2C [Compound 080, N-(4-(3-(2,4-dihydroxy-5-isopropylphenyl)-5-hydroxy-4H-1,2,4-triazol-4-yl)benzyl)-1-(3-ethoxy-4-((5-methyl-11-(methylsulfonyl)-6-oxo-6,11-dihydro-5H-benzo[e]pyrimido[5,4-b][1,4]diazepin-2-yl)amino)phenyl)piperidine-4-carboxamide]",–,–
< 6.00,> 7.00,< 6.00,"CCOc1cc(N2CCC(C(=O)N3CCC(CN4CCN(C(=O)CNC(=O)O[C@H]5CC[C@H](Nc6cc(-n7nc(C(F)(F)F)c8c7CC(C)(C)CC8=O)ccc6C(N)=O)CC5)CC4)CC3)CC2)ccc1Nc1ncc2c(n1)N(S(C)(=O)=O)c1ccccc1C(=O)N2C [Compound 119, (1R,4R)-4-((2-carbamoyl-5-(6,6-dimethyl-4-oxo-3-(trifluoromethyl)-4,5,6,7-tetrahydro-1H-indazol-1-yl)phenyl)amino)cyclohexyl (2-(4-((1-(1-(3-ethoxy-4-((5-methyl-11-(methylsulfonyl)-6-oxo-6,11-dihydro-5H-benzo[e]pyrimido[5,4-b][1,4]diazepin-2-yl)amino)phenyl)piperidine-4-carbonyl)piperidin-4-yl)methyl)piperazin-1-yl)-2-oxoethyl)carbamate]",–,–
> 7.00,6.00 to 7.00,< 6.00,"CCCc1cc(-c2nnc(C(=O)NCCN3CCCCC3)n2-c2ccc(CN3CCN(CC4CCN(C(=O)C5CCN(c6ccc(Nc7ncc8c(n7)N(S(C)(=O)=O)c7ccccc7C(=O)N8C)c(OCC)c6)CC5)CC4)CC3)cc2)c(O)cc1O [Compound 093, 5-(2,4-dihydroxy-5-propylphenyl)-4-(4-((4-((1-(1-(3-ethoxy-4-((5-methyl-11-(methylsulfonyl)-6-oxo-6,11-dihydro-5H-benzo[e]pyrimido[5,4-b][1,4]diazepin-2-yl)amino)phenyl)piperidine-4-carbonyl)piperidin-4-yl)methyl)piperazin-1-yl)methyl)phenyl)-N-(2-(piperidin-1-yl)ethyl)-4H-1,2,4-triazole-3-carboxamide]",–,–

Compound,pIC50 (HSP90α protein),"pEC50 ([1]; Homo sapiens, MV4-11)","pEC50 ([2]; Homo sapiens, U-87 MG, 72 h)",pEC50 [1],pEC50 ([2]; 72 hr)
"(1R,4R)-4-((2-carbamoyl-5-(6,6-dimethyl-4-oxo-3-(trifluoromethyl)-4,5,6,7-tetrahydro-1H-indazol-1-yl)phenyl)amino)cyclohexyl 4-(1-(1-(3-ethoxy-4-((5-methyl-11-(methylsulfonyl)-6-oxo-6,11-dihydro-5H-benzo[e]pyrimido[5,4-b][1,4]diazepin-2-yl)amino)phenyl)piperidine-4-carbonyl)piperidin-4-yl)piperazine-1-carboxylate [Compound 118]",< 6.00,–,–,6.00 to 7.00,< 6.00
